Test results from patent US11021515B2, “Therapeutically active compounds and their methods of use” (Agios Pharmaceuticals, Inc., priority 2013, dated 2021).
pIC50: −log10 of the molar value.

Assays:
IDH1 R132C = IDH1 R132C (Homo sapiens (Human), UniProt O75874, R132C); assay: In vitro NADPH depletion assay for IDH1m inhibitors (R132C); assay type: biochemical; conditions: IDH1 R132C enzyme, read-out: IDH R132C IC50
Procedure: (§1) A test compound is prepared as 10 mM stock in DMSO and diluted to 50× final concentration in DMSO, for a 50 μl reaction mixture. IDH enzyme activity converting alpha-ketoglutarate to 2-hydroxyglutaric acid is measured using a NADPH depletion assay. In the assay the remaining cofactor is measured at the end of the reaction with the addition of a catalytic excess of diaphorase and resazurin, to generate a fluorescent signal in proportion to the amount of NADPH remaining. […] The reaction is started with the addition of […] Substrate Mix ([…] NADPH, 5 mM alpha-ketoglutarate, in Assay Buffer) and the mixture is incubated for 90 minutes at room temperature.
The concentration of NADPH and alpha-ketoglutarate in the Substrate Buffer is 20 μM and 1 mM, respectively.

U87MG cells = assay: Cellular assay, inhibition of 2-HG production in U87MG cells; assay type: cell-based; conditions: Homo sapiens, U-87 MG, 48 h
Procedure: Cells (HT1080 or U87MG) are grown in T125 flasks in DMEM containing 10% FBS, 1× penicillin/streptomycin and 500 ug/mL G418 (present in U87MG cells only). They are harvested by trypsin and seeded into 96 well white bottom plates at a density of 5000 cell/well in 100 ul/well in DMEM with 10% FBS. […] Cells are incubated overnight at 37° C. in 5% CO2. The next day test compounds are made up at 2× the final concentration and 100 ul are added to each cell well. The final concentration of DMSO is 0.2% and the DMSO control wells are plated in row G. The plates are then placed in the incubator for 48 hours. […] The cell plate is placed back in the incubator for another 24 hours. At 72 hours post compound addition, 10 mL/plate of Promega Cell Titer Glo reagent is thawed and mixed. The cell plate is removed from the incubator and allowed to equilibrate to room temperature. Then 100 ul of Promega Cell Titer Glo reagent is added to each well of media. The cell plate is then placed on an orbital shaker for 10 minutes and then allowed to sit at room temperature for 20 minutes. The plate is then read for luminescence with an integration time of 500 ms.

IDH1 R132H = IDH1 R132H (Homo sapiens (Human), UniProt O75874, R132H); assay: In vitro NADPH depletion assay for IDH1m inhibitors (R132H); assay type: biochemical; conditions: IDH1 R132H enzyme, read-out: IDH R132H IC50
Procedure: as §1

Sequence of IDH1 R132C (O75874 whole entry R132C): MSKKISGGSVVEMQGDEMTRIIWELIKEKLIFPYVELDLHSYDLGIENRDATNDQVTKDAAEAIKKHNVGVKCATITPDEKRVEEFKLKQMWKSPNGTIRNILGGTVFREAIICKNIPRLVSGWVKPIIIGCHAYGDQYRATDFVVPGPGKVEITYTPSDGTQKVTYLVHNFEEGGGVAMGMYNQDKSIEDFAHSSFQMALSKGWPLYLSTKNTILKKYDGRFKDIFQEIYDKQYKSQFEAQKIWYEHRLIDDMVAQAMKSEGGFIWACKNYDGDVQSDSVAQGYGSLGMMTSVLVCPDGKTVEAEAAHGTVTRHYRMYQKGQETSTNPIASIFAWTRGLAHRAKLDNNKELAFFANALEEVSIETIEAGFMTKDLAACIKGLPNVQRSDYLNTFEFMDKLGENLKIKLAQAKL
Sequence of IDH1 R132H (O75874 whole entry R132H): as the sequence (O75874 whole entry R132C) above, with C132H counted along it

Row | Structure (SMILES) | pIC50 (IDH1 R132C) | pIC50 (U87MG cells) | pIC50 (IDH1 R132H)
1 | O=C(NC1CC(F)(F)C1)[C@H](c1ccccc1Cl)N(C(=O)[C@@H]1CCC(=O)N1c1cccc(F)n1)c1cccc(F)c1 [Compound 11] | 6.30 to 7.00 |  | 
2 | O=C(NC1CC(F)(F)C1)[C@H](c1ccccc1Cl)N(C(=O)[C@@H]1CCC(=O)N1c1cnccn1)c1cccc(F)c1 [Compound 18] |  | > 7.00 | 
3 | O=C(NC1CC(F)(F)C1)[C@H](c1ccccc1Cl)N(C(=O)[C@@H]1CCC(=O)N1c1ccccc1)c1cccc(F)c1 [Compound 23] |  | 6.30 to 7.00 | 
4 | N#Cc1ccnc(N2C(=O)OC[C@H]2C(=O)N(c2cccc(F)c2)[C@H](C(=O)NC2CCC(F)(F)CC2)c2ccccc2Cl)c1 [Compound 78, (S)—N—((S)-1-(2-Chlorophenyl)-2-((4,4-difluorocyclohexyl)amino)-2-oxoethyl)-3-(4-cyano-pyridin-2-yl)-N-(3-fluorophenyl)-2-oxooxazolidine-4-carboxamide] |  | > 7.00 | 
5 | O=C(NC1CC(F)(F)C1)[C@H](c1ccccc1Cl)N(C(=O)[C@@H]1CCC(=O)N1c1ccccn1)c1cccc(F)c1 [Compound 5] |  | 6.30 to 7.00 | 
6 | O=C(NC1CC(F)(F)C1)[C@H](c1ccccc1Cl)N(C(=O)[C@@H]1CCC(=O)N1c1nccc2ccccc12)c1cccc(F)c1 [Compound 16] | 6.30 to 7.00 |  | 6.30 to 7.00

Continued, values first:

Row | pIC50 (IDH1 R132C) | pIC50 (U87MG cells) | pIC50 (IDH1 R132H) | Structure (SMILES)
7 |  | 6.30 to 7.00 |  | CS(=O)(=O)c1cc(F)cc(N(C(=O)[C@@H]2CCC(=O)N2c2nccc(C#N)n2)[C@H](C(=O)NC2CC(F)(F)C2)c2ccccc2Cl)c1 [Compound 109, (S)—N—((S)-1-(2-Chlorophenyl)-2-((3,3-difluorocyclobutyl)amino)-2-oxoethyl)-1-(4-cyanopyrimidin-2-yl)-N-(3-fluoro-5-(methylsulfonyl)phenyl)-5-oxopyrrolidine-2-carboxamide]
8 |  | > 7.00 |  | CS(=O)(=O)c1cc(F)cc(N(C(=O)[C@@H]2CCC(=O)N2c2cc(C#N)ccn2)C(C(=O)NC2CCC(F)(F)CC2)c2ccccc2Cl)c1 (mixture of isomers) [Compound 105, (2S)—N-(1-(2-Chlorophenyl)-2-((4,4-difluorocyclohexyl)amino)-2-oxoethyl)-1-(4-cyanopyridin-2-yl)-N-(3-fluoro-5-(methylsulfonyl)phenyl)-5-oxopyrrolidine-2-carboxamide]
9 |  | > 7.00 |  | CCOC(=O)CN1C[C@@H](C(=O)N(c2cccc(F)c2)[C@H](C(=O)NC2CC(F)(F)C2)c2ccccc2Cl)N(c2cc(C#N)ccn2)C1=O [Compound 94, Ethyl 2-((4S)-4-((1-(2-chlorophenyl)-2-((3,3-difluorocyclobutyl)amino)-2-oxoethyl)(3-fluorophenyl)carbamoyl)-3-(4-cyanopyridin-2-yl)-2-oxoimidazolidin-1-yl)acetate]
10 |  | > 7.00 |  | N#Cc1ccnc(N2C(=O)CC[C@H]2C(=O)N(c2cccc(C3(O)CC3)c2)[C@H](C(=O)NC2CC(F)(F)C2)c2ccccc2Cl)c1 [Compound 140, (S)—N—((S)-1-(2-Xhlorophenyl)-2-(3,3-difluorocyclobutylamino)-2-oxoethyl)-1-(4-cyanopyridin-2-yl)-N-(3-(1-hydroxycyclopropyl)phenyl)-5-oxopyrrolidine-2-carboxamide]
11 | > 7.00 | > 7.00 | > 7.00 | CS(=O)(=O)c1cc(F)cc(N(C(=O)[C@@H]2CCC(=O)N2c2cc(C#N)ccn2)C(C(=O)NC2CC(F)(F)C2)c2ccccc2Cl)c1 (mixture of isomers) [Compound 110, (2S)—N-(1-(2-Chlorophenyl)-2-((3,3-difluorocyclobutyl)amino)-2-oxoethyl)-1-(4-cyanopyridin-2-yl)-N-(3-fluoro-5-(methylsulfonyl)phenyl)-5-oxopyrrolidine-2-carboxamide]
